# Assays:
# [1] = system: beet armyworm (BAW; Spodoptera exigua: Lepidoptera); assay: 96-well microtiter plate-based high throughput (HTS) diet bioassay on beet armyworm (BAW HTS); assay type: in vivo; details: BAW eggs, 12 μg test compound per well, mortality at 6 d post-treatment, mortality class
# Procedure: (§1) Bioassays on beet armyworm (BAW; Spodoptera exigua: Lepidoptera) were conducted using either a 96-well microtiter plate-based high throughput (HTS) bioassay or a 128-well diet tray assay. The HTS assay is a based on a modification of Lewer et al. J. Nat. Prod. 2006, 69, 1506. BAW eggs of were placed on top of artificial diet (100 μl) in each well of 96-well microtiter plate. The diet was pretreated with test compounds (12 μg dissolved in 30 μL of DMSO-acetone-water mixture) layered on top of the diet using a liquid handling system and then allowed to dry for several hours. Infested plates were then covered with a layer of sterile cotton batting and the plate lid, and then held in the dark at 29° C. Mortality was recoded at 6 d post-treatment. Each plate had six replicates. The percent mortality was calculated from the average of the six replicates. In the case of the 128-well diet assay, three to five second instar BAW larvae were placed in each well (3 mL) of the diet tray that had been previously filled with 1 mL of artificial diet to which 50 μg/cm^2 of the test compound (dissolved in 50 μL of 90:10 acetone-water mixture) had been applied (to each of eight wells) and then allowed to dry. Trays were covered with a clear self-adhesive cover, and held at 25° C., 14:10 light-dark for six days. Percent mortality was recorded for the larvae in each well; activity in the eight wells was then averaged. In Table 7, under the BAW HTS or BAW 50 heading, an “A” means that the compound was tested and at least 50 percent mortality was observed whereas, “B” means that either (1) the compound was tested and less than 50 percent mortality was observed or (2) the compound was not tested.
# [2] = system: beet armyworm (BAW; Spodoptera exigua: Lepidoptera); assay: 128-well diet tray assay on beet armyworm (BAW 50); assay type: in vivo
# Procedure: as §1
# [3] = 96-well microtiter plate HTS diet assay
# [4] = 128-well diet tray assay; 50 μg/cm^2 of test compound on diet; second instar BAW larvae; mortality class
# [5] = 128-well diet tray assay, second instar BAW larvae, 50 μg/cm^2 of test compound on diet; mortality class
Structure (SMILES),BAW HTS ([1]; 96-well HTS diet bioassay),"BAW HTS [1, 3]","BAW 50 ug/cm2 [2, 4]",BAW HTS ([1]; 96-well HTS diet assay),"BAW 50 ug/cm2 [2, 5]"
CCC(O)c1ccc(-n2ccc(-c3ccc(C=NOC4OC(C)C(OC)C(OC)C4OC)cc3)n2)cc1 (mixture of isomers) [Compound 5],B (either (1) the compound was tested and less than 50 percent mortality was observed or (2) the compound was not tested),B (either (1) the compound was tested and less than 50 percent mortality was observed or (2) the compound was not tested),A (the compound was tested and at least 50 percent mortality was observed),–,–
CCOC(=O)C1CC(c2ccc(C=NOC3OC(C)C(OC)C(OC)C3OC)cc2)=NN1c1ccc(OC(F)(F)F)cc1 (mixture of isomers) [Compound 13],B (either (1) the compound was tested and less than 50 percent mortality was observed or (2) the compound was not tested),B (either (1) the compound was tested and less than 50 percent mortality was observed or (2) the compound was not tested),A (the compound was tested and at least 50 percent mortality was observed),–,–
COC1C(C)OC(ON=Cc2ccc(C3=NN(c4ccc(OC(F)(F)F)cc4)C(C(=O)OCC(C)C)C3)cc2)C(OC)C1OC (mixture of isomers) [Compound 14],B (either (1) the compound was tested and less than 50 percent mortality was observed or (2) the compound was not tested),B (either (1) the compound was tested and less than 50 percent mortality was observed or (2) the compound was not tested),B (either (1) the compound was tested and less than 50 percent mortality was observed or (2) the compound was not tested),–,–
CCOC1C(OC)C(C)OC(ON=Cc2ccc(C3NC(c4ccc(OC(F)(F)F)cc4)=NO3)cc2)C1OC (mixture of isomers) [Compound 130],A (the compound was tested and at least 50 percent mortality was observed),A (the compound was tested and at least 50 percent mortality was observed),A (the compound was tested and at least 50 percent mortality was observed),–,–
CCOC1C(OC)C(C)OC(OC(=O)Nc2ccc(C3=NN(c4ccc(OC(F)(F)C(F)(F)F)cc4)CC3CN(C)C)cc2)C1OC (mixture of isomers) [Compound 180],–,B (either (1) the compound was tested and less than 50 percent mortality was observed or (2) the compound was not tested),A (the compound was tested and at least 50 percent mortality was observed),B (either (1) the compound was tested and less than 50 percent mortality was observed or (2) the compound was not tested),–
COC1CC(OC(=O)Nc2ccc(-c3ncn(-c4ccc(OC(F)(F)C(F)(F)F)cc4)n3)cc2)OC(C)C1O (mixture of isomers) [Compound 244],–,B (either (1) the compound was tested and less than 50 percent mortality was observed or (2) the compound was not tested),A (the compound was tested and at least 50 percent mortality was observed),B (either (1) the compound was tested and less than 50 percent mortality was observed or (2) the compound was not tested),–
CCOC1C(OC)C(C)OC(OC(=O)Nc2ccc(C3=NC(c4ccc(OC(F)(F)F)cc4)CO3)cc2)C1OC (mixture of isomers) [Compound 247],–,B (either (1) the compound was tested and less than 50 percent mortality was observed or (2) the compound was not tested),A (the compound was tested and at least 50 percent mortality was observed),B (either (1) the compound was tested and less than 50 percent mortality was observed or (2) the compound was not tested),–
COc1cccc(-c2cnn(-c3ccc(C=NOC4OC(C)C(OC)C(OC)C4OC)cc3)c2)c1 (stereo not drawn) [Compound 1],A (the compound was tested and at least 50 percent mortality was observed),–,–,A (the compound was tested and at least 50 percent mortality was observed),B (either (1) the compound was tested and less than 50 percent mortality was observed or (2) the compound was not tested)
COC1C(C)OC(ON=Cc2ccc(-n3ccc(-c4ccc(Cl)cc4)n3)cc2)C(OC)C1OC (stereo not drawn) [Compound 2],A (the compound was tested and at least 50 percent mortality was observed),–,–,A (the compound was tested and at least 50 percent mortality was observed),B (either (1) the compound was tested and less than 50 percent mortality was observed or (2) the compound was not tested)
COC1C(C)OC(ON=Cc2ccc(-n3ccc(-c4ccccn4)n3)cc2)C(OC)C1OC (stereo not drawn) [Compound 3],A (the compound was tested and at least 50 percent mortality was observed),–,–,A (the compound was tested and at least 50 percent mortality was observed),B (either (1) the compound was tested and less than 50 percent mortality was observed or (2) the compound was not tested)
COC1C(C)OC(ON=Cc2ccc(-n3ccc(-c4cccs4)n3)cc2)C(OC)C1OC (stereo not drawn) [Compound 4],B (either (1) the compound was tested and less than 50 percent mortality was observed or (2) the compound was not tested),–,–,B (either (1) the compound was tested and less than 50 percent mortality was observed or (2) the compound was not tested),B (either (1) the compound was tested and less than 50 percent mortality was observed or (2) the compound was not tested)
COC1C(C)OC(ON=Cc2ccc(-c3ccn(-c4ccc(SC(F)(F)F)cc4)n3)cc2)C(OC)C1OC (stereo not drawn) [Compound 6],B (either (1) the compound was tested and less than 50 percent mortality was observed or (2) the compound was not tested),B (either (1) the compound was tested and less than 50 percent mortality was observed or (2) the compound was not tested),A (the compound was tested and at least 50 percent mortality was observed),–,–
COC1C(C)OC(ON=Cc2ccc(-c3ccn(-c4ccc(OC(F)(F)C(F)F)cc4)n3)cc2)C(OC)C1OC (stereo not drawn) [Compound 7],B (either (1) the compound was tested and less than 50 percent mortality was observed or (2) the compound was not tested),B (either (1) the compound was tested and less than 50 percent mortality was observed or (2) the compound was not tested),A (the compound was tested and at least 50 percent mortality was observed),–,–
COC1C(C)OC(ON=Cc2ccc(-c3ccn(-c4ccc(OC(F)(F)C(F)(F)F)cc4)n3)cc2)C(OC)C1OC (stereo not drawn) [Compound 8],B (either (1) the compound was tested and less than 50 percent mortality was observed or (2) the compound was not tested),B (either (1) the compound was tested and less than 50 percent mortality was observed or (2) the compound was not tested),A (the compound was tested and at least 50 percent mortality was observed),–,–
COC1C(C)OC(ON=Cc2ccc(-c3ccn(-c4ccc(SC)cc4)n3)cc2)C(OC)C1OC (stereo not drawn) [Compound 9],B (either (1) the compound was tested and less than 50 percent mortality was observed or (2) the compound was not tested),B (either (1) the compound was tested and less than 50 percent mortality was observed or (2) the compound was not tested),A (the compound was tested and at least 50 percent mortality was observed),–,–
COC1C(C)OC(ON=Cc2ccc(-c3ccn(-c4ccc(C(C)C)cc4)n3)cc2)C(OC)C1OC (stereo not drawn) [Compound 10],B (either (1) the compound was tested and less than 50 percent mortality was observed or (2) the compound was not tested),B (either (1) the compound was tested and less than 50 percent mortality was observed or (2) the compound was not tested),A (the compound was tested and at least 50 percent mortality was observed),–,–
COC1C(C)OC(ON=Cc2ccc(-c3ccn(-c4ccc(C(C)(C)C)cc4)n3)cc2)C(OC)C1OC (stereo not drawn) [Compound 11],B (either (1) the compound was tested and less than 50 percent mortality was observed or (2) the compound was not tested),B (either (1) the compound was tested and less than 50 percent mortality was observed or (2) the compound was not tested),A (the compound was tested and at least 50 percent mortality was observed),–,–
COC1C(C)OC(ON=Cc2ccc(-c3ccn(-c4ccc(OC(F)(F)F)cc4)n3)cc2)C(OC)C1OC (stereo not drawn) [Compound 12],B (either (1) the compound was tested and less than 50 percent mortality was observed or (2) the compound was not tested),B (either (1) the compound was tested and less than 50 percent mortality was observed or (2) the compound was not tested),A (the compound was tested and at least 50 percent mortality was observed),–,–
